This passage reports inhibition in vivo and IC50 results from patent US5008282A, “Cyclic guanidine derivatives, anti-ulceratives and methods of manufacturing the same” (Kotobuki Seiyaku Co. Ltd., priority 1988, dated 1991).

SMILES strings stand for the structures. Where a name gives a salt, the structure may show the parent alone.

The test system of experiment [1] is histamine-stimulated acid secretion. The experiment in a line: Inhibitory activities of gastric-acid secretion in the acute fistula rat. In kind it is in vivo. As to conditions: 50 mg/kg oral, histamine.2HCl 10 mg/kg s.c. 4 hours after compound, Male Wistar rats, read-out: Total acid inhibition (inhibitory percent of compounds on histamine-stimulated acid secretion). The protocol:
Inhibitory activities of gastric-acid secretion in the acute fistula rat.
Determination of gastric-acid secretion is performed by the method of Y. Goto et al.(Expenentia 32, 946, (1976)). Male Wistar rats are anesthetized with urethane (1.2 g/kg, i.p.) 2 hours after the oral administration of compounds. A dual polyethylene cannula is introduced into the gastric lumen after ligation of the pylorus and the esophagus. The stomach is rinsed with 5 ml of saline through the gastric cannula at 15 min interval. The acid output during 15 minutes period is titrated with 0.01N NaOH. Histamine.2HCl (10 mg/kg, s.c.) is administered as a secretory agent 4 hours after the administration of compounds.

For experiment [2], the target named is T1, (H^+, K^+)ATPase (Sus scrofa, UniProt P19156).
T1 construct: ATPase is prepared from the pig gastric mucosa; from tissue; host or cells: pig gastric mucosa
Kind of experiment: Inhibition of (H^+, K^+)ATPase activities. In kind it is biochemical. The following applies: pig gastric mucosa ATPase; pH 7.4; 2 mM MgCl2; 10 mM KCl; 37° C; read-out: (H^+,K^+)ATPase IC50 (Concentration of 50% inhibition). As to the method: Inhibition of (H^+, K^+)ATPase activities. Inhibition of (H^+, K^+)ATPase activities is determined by the method of F. Fellenius et al., [Nature 290, 159-61, (1981)]. (H^+, K^30 )ATPase is prepared from the pig gastric mucosa and the test compound is incubated with 2 mM of […], 40 mM of tris-buffer (pH 7.4), 2 mM of MgCl2 and 10 mM of KCl at 37° C. Inorganic phosphate occurring by stimulation of ATPase is determined.

T1 sequence (P19156 2-1034 limits assumed): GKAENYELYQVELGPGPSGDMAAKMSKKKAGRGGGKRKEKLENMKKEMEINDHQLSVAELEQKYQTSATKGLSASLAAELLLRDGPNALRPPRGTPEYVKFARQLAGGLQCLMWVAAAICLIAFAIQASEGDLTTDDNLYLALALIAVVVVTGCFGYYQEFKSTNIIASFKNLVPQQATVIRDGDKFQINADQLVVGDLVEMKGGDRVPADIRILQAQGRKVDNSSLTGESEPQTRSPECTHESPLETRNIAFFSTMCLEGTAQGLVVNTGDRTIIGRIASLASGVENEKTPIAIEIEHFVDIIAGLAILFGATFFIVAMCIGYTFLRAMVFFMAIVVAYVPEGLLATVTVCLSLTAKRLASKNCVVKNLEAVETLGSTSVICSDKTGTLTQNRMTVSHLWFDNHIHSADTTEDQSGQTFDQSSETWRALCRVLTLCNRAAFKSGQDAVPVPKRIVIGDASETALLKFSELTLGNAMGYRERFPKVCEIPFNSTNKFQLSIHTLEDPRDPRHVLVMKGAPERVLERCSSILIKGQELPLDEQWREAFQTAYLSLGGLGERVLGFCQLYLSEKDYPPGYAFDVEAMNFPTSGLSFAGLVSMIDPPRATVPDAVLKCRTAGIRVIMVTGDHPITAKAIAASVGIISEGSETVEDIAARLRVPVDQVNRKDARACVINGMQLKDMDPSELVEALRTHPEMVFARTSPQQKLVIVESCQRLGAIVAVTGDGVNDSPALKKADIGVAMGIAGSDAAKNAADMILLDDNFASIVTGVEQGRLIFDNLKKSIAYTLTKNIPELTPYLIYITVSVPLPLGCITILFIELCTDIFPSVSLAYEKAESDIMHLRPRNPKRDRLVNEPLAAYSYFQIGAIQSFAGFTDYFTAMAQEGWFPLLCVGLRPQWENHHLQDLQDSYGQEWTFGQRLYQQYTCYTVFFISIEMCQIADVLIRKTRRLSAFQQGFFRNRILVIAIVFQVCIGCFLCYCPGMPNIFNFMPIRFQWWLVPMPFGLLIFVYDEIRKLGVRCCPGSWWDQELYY
T1 sequence (P18434 whole entry partner): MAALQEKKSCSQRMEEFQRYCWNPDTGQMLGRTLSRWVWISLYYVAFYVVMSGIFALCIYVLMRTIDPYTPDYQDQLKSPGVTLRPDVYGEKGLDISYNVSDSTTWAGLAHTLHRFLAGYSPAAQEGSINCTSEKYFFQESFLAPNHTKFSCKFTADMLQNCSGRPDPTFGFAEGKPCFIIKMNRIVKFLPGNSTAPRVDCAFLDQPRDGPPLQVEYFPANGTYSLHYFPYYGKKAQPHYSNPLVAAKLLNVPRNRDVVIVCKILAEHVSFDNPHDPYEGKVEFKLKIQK

In the case of `C/C=C/C(=O)Sc1c(C)nc2nc3cccccc3n12` [Compound 69, 3-(Crotonoyl)thio-2-methyl-cyclohept[d]imidazo[1,2-a]imidazole], the inhibition in vivo at 50 mg/kg in experiment [1] came to 83.5%. In addition, the IC50 in experiment [2] was 22.7 µM.

As for `CCC(=O)Sc1c2ccccn2c2nc3c(n12)CCCCC3` [Compound 21, 13-(Propionyl)thio-pyrido[1',2':3,4]imidazo[1,2-a]-7,8,9,10,11pentahydro-cycloheptimidazole fumarate], the inhibition in vivo at 50 mg/kg in experiment [1] is 64.9%. The IC50 in experiment [2] was 18.1 µM. `COCCC(=O)Sc1c(-c2ccccc2)nc2nc3cccccc3n12` [Compound 44, 3-(3-Methoxypropionyl)thio-2-phenyl-cyclohept[d]imidazo[1,2-a]imidazole]: in experiment [1], the inhibition in vivo at 50 mg/kg worked out at 80.7%. Moreover, the IC50 in experiment [2] worked out at 8.75 µM.

Regarding `O=C(Sc1c(-c2ccccc2)nc2nc3cccccc3n12)c1ccccn1` [Compound 48, 3-(Picolinoyl)thio-2-phenyl-cyclohept[d]imidazo[1,2-a]imidazole], the IC50 in experiment [2] is 2.72 µM.

Regarding `CCCCC(=O)Sc1c(C)nc2nc3cccccc3n12` [Compound 82, 3-(valeryl)thio-2-methyl-cyclohept [d]imidazo[1,2-a]imidazole], the inhibition in vivo at 50 mg/kg in experiment [1] turned out to be 81.2%.

As to `Cc1nc2nc3cccccc3n2c1SC(=O)C(C)C` [Compound 81, 3-(isobutyryl)thio-2-methyl-cyclohept[d]imidazo[1,2-a]imidazole], the inhibition in vivo at 50 mg/kg in experiment [1] is 79.8%. Also, in experiment [2], the IC50 was 2.79 µM. On the same counts, the results for `COCC(=O)Sc1c(-c2ccccc2)nc2nc3cccccc3n12` [Compound 43, 3-(Methoxyacetyl)thio-2-phenyl-cyclohept[d]imidazo[1,2-a]imidazole] are 53.8% and 2.23 µM. For the compound `Cc1nc2nc3cccccc3n2c1SC(=O)c1ccccc1` [Compound 77, 3-(Benzoyl)thio-2-methyl-cyclohept[d]imidazo[1,2-a]imidazole], in experiment [1], the inhibition in vivo at 50 mg/kg is 82.5%.

For `CC(=O)Sc1c(-c2ccc(F)cc2)nc2nc3cccccc3n12` [Compound 55, 3-(acetyl)thio-(4-fluorophenyl)-cyclohept[d]imidazo[1,2-a]imidazole], in experiment [2], the IC50 turned out to be 1.4 µM. With `CCC(=O)Sc1c(-c2ccccc2)nc2nc3cccccc3n12` [Compound 35, 3-(Propionyl)thio-2-phenyl-cyclohept[d]imidazo[1,2-a]imidazole], the inhibition in vivo at 50 mg/kg in experiment [1] was 54%. For the same compound, the IC50 in experiment [2] turned out to be 10.5 µM. In the case of `C=CCSc1c2ccccn2c2nc3c(n12)CCCCC3` [Compound 16, 13-(2-Propenyl)thio-pyrido[1',2':3,4]imidazo[1,2-a]-7,8,9,10,11pentahydro-cycloheptimidazole], in experiment [2], the IC50 was 16.5 µM. Still for that read-out and setting: for `C#CCSc1c2ccccn2c2nc3c(n12)CCCCC3` [Compound 18] the value was 3.06 µM.

Turning to `C/C=C/C(=O)Sc1c(-c2ccccc2)nc2nc3cccccc3n12` [Compound 38, 3-(Crotonoyl)thio-2-phenyl-cyclohept[d]imidazo[1,2-a]imidazole], the inhibition in vivo at 50 mg/kg in experiment [1] was found to be 63.4%. The IC50 in experiment [2] was found to be 13.3 µM. On the same counts, the results for `CCC(=O)Sc1c(C)nc2nc3cccccc3n12` [Compound 66, 3-(Propionyl)thio-2-methyl-cyclohept[d]imidazo[1,2-a]imidazole] are 63.7% and 17.5 µM. For `CC#CCSc1c2ccccn2c2nc3c(n12)CCCCC3` [Compound 19, 13-(2-Butynyl)thio-pyrido[1',2':3,4]imidazo[1,2-a]-7,8,9,10,11pentahydro-cycloheptimidazole], the IC50 in experiment [2] is 47.3 µM.

In the case of `C=CC(=O)Sc1c(-c2ccccc2)nc2nc3cccccc3n12` [Compound 37, 3-(Acryloyl)thio-2-phenyl-cyclohept[d]imidazo[1,2-a]imidazole], in experiment [1], the inhibition in vivo at 50 mg/kg stood at 51.5%. In addition, the IC50 in experiment [2] was determined as 2.2 µM. Regarding `CC(=O)Sc1c(-c2ccccc2)nc2nc3cccccc3n12` [Compound 34, 3-(Acetyl)thio-2-phenyl-cyclohept[d]imidazo[1,2-a]imidazole], the inhibition in vivo at 50 mg/kg in experiment [1] was 76.6%. Besides, the IC50 in experiment [2] was determined as 2.47 µM.

With `COCC(=O)Sc1c(C)nc2nc3cccccc3n12` [Compound 72, 3-(Methoxyacetyl)thio-2-methyl-cyclohept[d]imidazo[1,2-a]imidazole], the IC50 in experiment [2] came out at 5.9 µM. For the compound `CCC(=O)Sc1c(-c2ccccc2)nc2n(C)c3ccccc3n12` [Compound 87, 3-(Propionyl)thio-2-phenyl-9-methyl-9H-imidazo[1,2-a]benzimidazole], the inhibition in vivo at 50 mg/kg in experiment [1] was determined as 53.8%. For the same compound, the IC50 in experiment [2] is 25.8 µM. Take `COCCC(=O)Sc1c(C)nc2nc3cccccc3n12` [Compound 75, 3-(3-MethoxyPropionyl)thio-2-methyl-cyclohept[d]imidazo[1,2-a]imidazole]: the IC50 in experiment [2] is 55.1 µM. The same measure, in the same setting: under `CC(=O)Sc1c(-c2ccc(Cl)cc2)nc2nc3cccccc3n12` [Compound 57, 3-(acetyl)thio-2-(4-chlorophenyl)-cyclohept[d]imidazo[1,2-a]imidazole] stands 0.79 µM. Regarding `Cc1nc2nc3cccccc3n2c1SC(=O)C(C)(C)C` [Compound 68, 3-(Pivaloyl)thio-2-methyl-cyclohept[d]imidazo[1,2-a]imidazole], in experiment [1], the inhibition in vivo at 50 mg/kg amounted to 73.9%. As for `Cn1ccn2c(SC(=O)COc3ccccc3)c(-c3ccccc3)nc12` [Compound 92, 5-(Phenoxyacetyl)thio-6-phenyl-1-methyl-1H-imidazo[1,2-a]imidazole], the inhibition in vivo at 50 mg/kg in experiment [1] was 65.6%. For the same compound, the IC50 in experiment [2] was 16 µM.

Regarding `CC(=O)Sc1c(C)nc2nc3cccccc3n12` [Compound 65, 3-(Acetyl)thio-2-methyl-cyclohept[d]imidazo[1,2-a]imidazole], the inhibition in vivo at 50 mg/kg in experiment [1] was 68.8%. In the case of `CCCCC(=O)Sc1c(-c2ccccc2)nc2nc3ccc(C(C)C)ccc3n12` [Compound 53, 3-(valeryl)thio-2-phenyl-7-isopropyl-cyclohept[d]imidazo[1,2-a]imidazole], the inhibition in vivo at 50 mg/kg in experiment [1] came out at 73.7%. Moreover, in experiment [2], the IC50 was found to be 1.95 µM. As for `Cc1nc2nc3cccccc3n2c1SC(=O)c1ccccn1` [Compound 76, 3-(Picolinoyl)thio-2-methyl-cyclohept[d]imidazo[1,2-a]imidazole], the inhibition in vivo at 50 mg/kg in experiment [1] came out at 83.7%. `c1ccn2c(c1)c(SCCN1CCCCC1)n1c3c(nc12)CCCCC3` [Compound 23, 13-[2-(1-Piperidino)ethyl]thio-pyrido[1',2':3,4]imidazo[1,2-a]7,8,9,10,11-pentahydro-cycloheptimidazole]: in experiment [2], the IC50 was found to be 91.3 µM.
